In general, IC50 refers to the concentration that gives 50% inhibition.

For this experiment, the target named is human MER (528-end) (Homo sapiens (Human), UniProt Q12866). Nature of the experiment: HTRF Kinase Activity Biochemical Assay (KinEASE-TK). To be noted: 10 uM ATP. Put shortly: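 Activity read-out is the HTRF ratio (665 nm over 620 nm emission, ×10,000; excitation 340 nm) after 1 h detection with 0.375 nM Eu3+-cryptate anti-TK antibody plus 0.062 uM SA-XL665. Preceding kinase step: human MER (528-end), biotinylated TK substrate, 1 h, room temperature.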
human MER (528-end), sequence (Q12866 528-999 limits assumed): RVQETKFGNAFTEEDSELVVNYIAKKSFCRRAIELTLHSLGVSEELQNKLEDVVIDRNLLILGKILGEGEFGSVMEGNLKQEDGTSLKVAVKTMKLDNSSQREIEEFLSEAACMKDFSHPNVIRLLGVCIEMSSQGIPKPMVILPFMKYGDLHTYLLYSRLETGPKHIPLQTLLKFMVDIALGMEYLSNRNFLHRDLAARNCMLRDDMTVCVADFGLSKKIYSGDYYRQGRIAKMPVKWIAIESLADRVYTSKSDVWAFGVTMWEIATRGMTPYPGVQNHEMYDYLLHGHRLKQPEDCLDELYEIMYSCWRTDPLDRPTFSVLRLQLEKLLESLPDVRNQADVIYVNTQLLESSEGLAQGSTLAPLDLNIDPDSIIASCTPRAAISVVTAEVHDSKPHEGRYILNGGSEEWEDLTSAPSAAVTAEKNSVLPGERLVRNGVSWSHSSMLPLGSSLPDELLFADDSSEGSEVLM
For orientation: In TR-FRET formats the signal depends on donor and acceptor labels being close together.

In the case of `Cn1cc(-c2cnc(N)c(C(=O)N[C@@H]3CCN(C(=O)c4cccc(-c5ccnc(N6CCNCC6)c5)c4)C3)c2)cn1` [Example 480, (R)-2-amino-5-(1-methyl-1H-pyrazol-4-yl)-N-(1-(3-(2-(piperazin-1-yl)pyridin-4-yl)benzoyl)pyrrolidin-3-yl)nicotinamide], the half-maximal inhibitory concentration (IC50) is more than 1000 nM.

As for `Cn1cc(-c2cnc(N)c(C(=O)N[C@@H]3CCN(C(=O)c4cccc(-c5cccc(NS(C)(=O)=O)c5)c4)C3)c2)cn1` [Example 481, (R)-2-amino-5-(1-methyl-1H-pyrazol-4-yl)-N-(1-(3′-(methylsulfonamido)-[1,1′-biphenyl]-3-carbonyl)pyrrolidin-3-yl)nicotinamide], the concentration for half-maximal inhibition (IC50) was more than 1000 nM.

In turn, `Cc1ccc(C(=O)N2CC[C@@H](NC(=O)c3cc(-c4cnn(C)c4)cnc3N)C2)cc1-c1ccccc1` [Example 482, (R)-2-amino-5-(1-methyl-1H-pyrazol-4-yl)-N-(1-(6-methyl-[1,1′-biphenyl]-3-carbonyl)pyrrolidin-3-yl)nicotinamide] returned an IC50 of more than 1000 nM.

Take `Cc1ccc(C(=O)N2CC[C@@H](NC(=O)c3cc(-c4cnn(C)c4)cnc3N)C2)cc1-c1ccccc1Cl` [Example 483, (R)-2-amino-N-(1-(2′-chloro-6-methyl-[1,1′-biphenyl]-3-carbonyl)pyrrolidin-3-yl)-5-(1-methyl-1H-pyrazol-4-yl)nicotinamide]: the IC50 was more than 1000 nM.

Turning to `Cc1ccc(C(=O)N2CC[C@@H](NC(=O)c3cc(-c4cnn(C)c4)cnc3N)C2)cc1-c1cccc(Cl)c1` [Example 484, (R)-2-amino-N-(1-(3′-chloro-6-methyl-[1,1′-biphenyl]-3-carbonyl)pyrrolidin-3-yl)-5-(1-methyl-1H-pyrazol-4-yl)nicotinamide], the concentration for half-maximal inhibition (IC50) is more than 1000 nM.

For `Cc1cc(C(=O)N2CC[C@@H](NC(=O)c3cc(-c4cnn(C)c4)cnc3N)C2)c(N)c(-c2ccccc2)c1` [Example 485, (R)-2-amino-N-(1-(2-amino-5-methyl-[1,1′-biphenyl]-3-carbonyl)pyrrolidin-3-yl)-5-(1-methyl-1H-pyrazol-4-yl)nicotinamide], the half-maximal inhibitory concentration (IC50) was in the range of 100 to 1000 nM.

`Cc1nn(C)cc1-c1ccc(C(=O)N2CC[C@@H](NC(=O)c3cc(-c4cnn(C)c4)cnc3N)C2)cc1` [Example 488, (R)-2-amino-N-(1-(4-(1,3-dimethyl-1H-pyrazol-4-yl)benzoyl)pyrrolidin-3-yl)-5-(1-methyl-1H-pyrazol-4-yl)nicotinamide] gave an IC50 of 100 to 1000 nM.

The compound `Cn1cc(-c2cnc(N)c(C(=O)N[C@@H]3CCN(C(=O)c4ccc(-c5cc6ccccc6s5)cc4)C3)c2)cn1` [Example 490, (R)-2-amino-N-(1-(4-(benzo[b]thiophen-2-yl)benzoyl)pyrrolidin-3-yl)-5-(1-methyl-1H-pyrazol-4-yl)nicotinamide] had a half-inhibitory concentration (IC50) of more than 1000 nM.

Compound `Cn1cc(-c2cnc(N)c(C(=O)N[C@@H]3CCN(C(=O)c4ccc(-c5ccnc(N6CCNCC6)c5)cc4)C3)c2)cn1` [Example 491, (R)-2-amino-5-(1-methyl-1H-pyrazol-4-yl)-N-(1-(4-(2-(piperazin-1-yl)pyridin-4-yl)benzoyl)pyrrolidin-3-yl)nicotinamide] returned an IC50 of 100 to 1000 nM.

`Cn1cc(-c2cnc(N)c(C(=O)N[C@@H]3CCN(C(=O)c4ccc(-c5ccc(N6CCOCC6)cc5)cc4)C3)c2)cn1` [Example 492, (R)-2-amino-5-(1-methyl-1H-pyrazol-4-yl)-N-(1-(4′-morpholino-[1,1′-biphenyl]-4-carbonyl)pyrrolidin-3-yl)nicotinamide] gave a half-maximal inhibitory concentration (IC50) of more than 1000 nM.

Turning to `Cn1cc(-c2cnc(N)c(C(=O)N[C@@H]3CCN(C(=O)c4ccc(-c5ccc(C(=O)N6CCOCC6)cc5)cc4)C3)c2)cn1` [Example 493, (R)-2-amino-5-(1-methyl-1H-pyrazol-4-yl)-N-(1-(4′-(morpholine-4-carbonyl)-[1,1′-biphenyl]-4-carbonyl)pyrrolidin-3-yl)nicotinamide], the IC50 was more than 1000 nM.

`CC1=C(C(=O)N2CC[C@@H](NC(=O)c3cc(-c4cnn(C)c4)cnc3N)C2)Cc2ccccc21` [Example 497, (R)-2-amino-N-(1-(3-methyl-1H-indene-2-carbonyl)pyrrolidin-3-yl)-5-(1-methyl-1H-pyrazol-4-yl)nicotinamide] showed a half-inhibitory concentration (IC50) of more than 1000 nM.

As to `Cn1cc(-c2cnc(N)c(C(=O)N[C@@H]3CCN(C(=O)c4cccc5[nH]ccc45)C3)c2)cn1` [Example 504, (R)—N-(1-(1H-indole-4-carbonyl)pyrrolidin-3-yl)-2-amino-5-(1-methyl-1H-pyrazol-4-yl)nicotinamide], the 50% inhibitory concentration (IC50) is more than 1000 nM.

Turning to `Cn1cc(-c2ccc(C(=O)N3CC[C@@H](NC(=O)c4cc(-c5cnn(C)c5)cnc4N)C3)cc2)cn1` [Example 506, (R)-2-amino-5-(1-methyl-1H-pyrazol-4-yl)-N-(1-(4-(1-methyl-1H-pyrazol-4-yl)benzoyl)pyrrolidin-3-yl)nicotinamide], the 50% inhibitory concentration (IC50) is 100 to 1000 nM.

Turning to `Cc1nn(C)c(C)c1-c1ccc(C(=O)N2CC[C@@H](NC(=O)c3cc(-c4cnn(C)c4)cnc3N)C2)cc1` [Example 507, (R)-2-amino-5-(1-methyl-1H-pyrazol-4-yl)-N-(1-(4-(1,3,5-trimethyl-1H-pyrazol-4-yl)benzoyl)pyrrolidin-3-yl)nicotinamide], the IC50 lay within 100 to 1000 nM.

For the compound `Cn1cc(-c2cnc(N)c(C(=O)N[C@@H]3CCN(C(=O)c4ccc(-c5cnn(C6CCCC6)c5)cc4)C3)c2)cn1` [Example 508, (R)-2-amino-N-(1-(4-(1-cyclopentyl-1H-pyrazol-4-yl)benzoyl)pyrrolidin-3-yl)-5-(1-methyl-1H-pyrazol-4-yl)nicotinamide], the IC50 is more than 1000 nM.

Compound `Cn1cc(-c2cnc(N)c(C(=O)N[C@@H]3CCN(C(=O)c4ccc(-c5cnn(C6CCOCC6)c5)cc4)C3)c2)cn1` [Example 509, (R)-2-amino-5-(1-methyl-1H-pyrazol-4-yl)-N-(1-(4-(1-(tetrahydro-2H-pyran-4-yl)-1H-pyrazol-4-yl)benzoyl)pyrrolidin-3-yl)nicotinamide] displayed an IC50 of more than 1000 nM.

With `Cn1cc(-c2cnc(N)c(C(=O)N[C@@H]3CCN(C(=O)c4ccc(-c5cnn(C6CCNCC6)c5)cc4)C3)c2)cn1` [Example 510, (R)-2-amino-5-(1-methyl-1H-pyrazol-4-yl)-N-(1-(4-(1-(piperidin-4-yl)-1H-pyrazol-4-yl)benzoyl)pyrrolidin-3-yl)nicotinamide], the 50% inhibitory concentration (IC50) was more than 1000 nM.

In the case of `Cn1cc(-c2cnc(N)c(C(=O)N[C@@H]3CCN(C(=O)c4cc5cc(-c6ccccc6)ccc5o4)C3)c2)cn1` [Example 512, (R)-2-amino-5-(1-methyl-1H-pyrazol-4-yl)-N-(1-(5-phenylbenzofuran-2-carbonyl)pyrrolidin-3-yl)nicotinamide], the half-maximal inhibitory concentration (IC50) is more than 1000 nM.

In turn, `Cn1cc(-c2cnc(N)c(C(=O)N[C@@H]3CCN(C(=O)c4cccc(O)c4)C3)c2)cn1` [Example 515, (R)-2-amino-N-(1-(3-hydroxybenzoyl)pyrrolidin-3-yl)-5-(1-methyl-1H-pyrazol-4-yl)nicotinamide] registered an IC50 of more than 1000 nM.

In the case of `Cc1c(-c2ccc(C(=O)N3CC[C@@H](NC(=O)c4cc(-c5cnn(C)c5)cnc4N)C3)cc2)cnn1C` [Example 517, (R)-2-amino-N-(1-(4-(1,5-dimethyl-1H-pyrazol-4-yl)benzoyl)pyrrolidin-3-yl)-5-(1-methyl-1H-pyrazol-4-yl)nicotinamide], the IC50 lay within 10 to 100 nM.

Consider `Cc1nn(-c2ccccc2)c(C)c1-c1ccc(C(=O)N2CC[C@@H](NC(=O)c3cc(-c4cnn(C)c4)cnc3N)C2)cc1` [Example 519, (R)-2-amino-N-(1-(4-(3,5-dimethyl-1-phenyl-1H-pyrazol-4-yl)benzoyl)pyrrolidin-3-yl)-5-(1-methyl-1H-pyrazol-4-yl)nicotinamide], for which the concentration for half-maximal inhibition (IC50) is more than 1000 nM.

With `Cc1sc(-c2ccc(C(=O)N3CC[C@@H](NC(=O)c4cc(-c5cnn(C)c5)cnc4N)C3)cc2)c(C)c1Br` [Example 522, (R)-2-amino-N-(1-(4-(4-bromo-3,5-dimethylthiophen-2-yl)benzoyl)pyrrolidin-3-yl)-5-(1-methyl-1H-pyrazol-4-yl)nicotinamide], the IC50 fell in the range of 100 to 1000 nM.

In turn, `Cn1cc(-c2cnc(N)c(C(=O)N[C@@H]3CCN(C(=O)c4ccc(-c5ccc(Oc6ccccc6)cc5)cc4)C3)c2)cn1` [Example 527, (R)-2-amino-5-(1-methyl-1H-pyrazol-4-yl)-N-(1-(4′-phenoxy-[1,1′-biphenyl]-4-carbonyl)pyrrolidin-3-yl)nicotinamide] returned an IC50 of 100 to 1000 nM.

Take `COc1ccc(Oc2ccc(-c3ccc(C(=O)N4CC[C@@H](NC(=O)c5cc(-c6cnn(C)c6)cnc5N)C4)cc3)cc2)cc1` [Example 528, (R)-2-amino-N-(1-(4′-(4-methoxyphenoxy)-[1,1′-biphenyl]-4-carbonyl)pyrrolidin-3-yl)-5-(1-methyl-1H-pyrazol-4-yl)nicotinamide]: the half-inhibitory concentration (IC50) was more than 1000 nM.

`Cc1ccc(-c2ccc(C(=O)N3CC[C@@H](NC(=O)c4cc(-c5cnn(C)c5)cnc4N)C3)cc2O)s1` [Example 535, (R)-2-amino-N-(1-(3-hydroxy-4-(5-methylthiophen-2-yl)benzoyl)pyrrolidin-3-yl)-5-(1-methyl-1H-pyrazol-4-yl)nicotinamide] showed a 50% inhibitory concentration (IC50) of 100 to 1000 nM.

`CC(=O)c1ccc(-c2ccc(C(=O)N3CC[C@@H](NC(=O)c4cc(-c5cnn(C)c5)cnc4N)C3)cc2)s1` [Example 538, (R)—N-(1-(4-(5-acetylthiophen-2-yl)benzoyl)pyrrolidin-3-yl)-2-amino-5-(1-methyl-1H-pyrazol-4-yl)nicotinamide] came in with a half-inhibitory concentration (IC50) of 100 to 1000 nM.

`Cc1onc(N)c1-c1ccc(C(=O)N2CC[C@@H](NC(=O)c3cc(-c4cnn(C)c4)cnc3N)C2)cc1` [Example 540, (R)-2-amino-N-(1-(4-(3-amino-5-methylisoxazol-4-yl)benzoyl)pyrrolidin-3-yl)-5-(1-methyl-1H-pyrazol-4-yl)nicotinamide] had a half-inhibitory concentration (IC50) of more than 1000 nM.

In turn, `Cc1cnc(-c2ccc(C(=O)N3CC[C@@H](NC(=O)c4cc(-c5cnn(C)c5)cnc4N)C3)cc2)s1` [Example 543, (R)-2-amino-5-(1-methyl-1H-pyrazol-4-yl)-N-(1-(4-(5-methylthiazol-2-yl)benzoyl)pyrrolidin-3-yl)nicotinamide] gave an IC50 of 100 to 1000 nM.

Values taken from patent US12378224B2 (Dong-A Socio Holdings Co., Ltd., priority 2016, dated 2025).
